From a melting point compilation (Tetko et al.)

Compound | melting point [°C]
Nc1cc(F)ccc1F | 14
Cn1c(=O)c(C2=Nc3ccccc3SC(c3cccs3)C2)c(O)c2ccccc21 (stereo not given) | 224
O=C1C(Cl)=C(Nc2ccccc2)C(=O)c2ccccc21 | 215
Cc1cc(C(=O)O)cc(O)n1 | 240
N#Cc1cc(F)c(Cl)nc1Cl | 91
N#C/C(=C/c1ccc(Cl)cc1Cl)c1nc2ccccc2c(=O)[nH]1 | 298 to 300
Cc1ccccc1C=CC(=O)O | 175 to 177
NCCN(CCN)N(O)N=O | 98 to 106
Cc1cc2cc([N+](=O)[O-])ccc2[nH]1 | 173 to 178
O=C(O)Cc1csc2ccccc12 | 110
COc1cc2c3c(c4ccc(OC)c(OC)c4c2cc1OC)CN1CCCC1C3 (stereo not given) | 220
Nc1ncccc1I | 90
CNCCCC12CCC(c3ccccc31)c1ccccc12 | 92
CC1=CCCC(C)(C)C1/C=C/C(C)=C/C=C/C(C)=C/C=C/C=C(C)/C=C/C=C(C)/C=C/C1=C(C)CCCC1(C)C (stereo not given) | 188
COC(=O)c1cc2ccccc2c(O)c1C(=O)OC | 105
Clc1ncccc1-c1ccc(Br)cn1 | 132
N#Cc1cccc(I)c1 | 40
Nc1cc(F)ccc1-n1ccnc1 | 127
O=C(O)C1Cc2ccccc21 (stereo not given) | 74
Oc1ncnc2[nH]ncc12 | 350
CC(=O)Oc1c(-c2ccccc2)[nH]c2cc([N+](=O)[O-])c(/C=C/c3ccccc3)cc12 | 224
CCOC(=O)c1c(C)oc(NC(=O)Nc2ccc(Cl)cc2)c1C(=O)OCC | 169 to 170
O=CNC(c1ccccc1)C(O)c1ccccc1 (stereo not given) | 205
NCc1ccc(OC2CCOCC2)cc1 | 41.5 to 43.5
NS(=O)(=O)c1cc2c(cc1Cl)CN(C1CCCCC1)C2=O | 267
NC(=S)COc1cccc(Cl)c1 | 122 to 124

Compound | melting point [°C]
COc1cc(C(=O)OCCCl)cc(OC)c1OC | 69
O=C(O)c1cc(F)cc(C(F)(F)F)c1 | 104 to 108
O=c1cccco1 | 8.5
O=C1C(c2ccccc2)=C(c2ccccc2)c2ccccc21 | 151 to 155
COc1cc(Br)c(CC(=O)O)cc1OC | 94 to 96
O=C=Nc1ccc(Cl)c([N+](=O)[O-])c1 | 66
c1ccc(-c2sc(-c3ccccc3)c(-c3ccccc3)c2-c2ccccc2)cc1 | 182
c1ccc2cc3c(cc2c1)nnc1ncnn13 | 198 to 202
O=C(O)c1cccc(Cl)n1 | 194
Nc1c(CN2CCCCCC2)c(=O)oc2ccccc12 | 153
O=S(=O)(Cl)c1cc(Br)cc2c1OCC2 | 121 to 122
Oc1ccc(F)cc1Cl | 23
Cc1cccc(N/N=C(\C#N)c2nc(C)c(/N=N/c3ccccc3)s2)c1 | 211
O=C(O)c1cccc2c1-c1ccc(I)cc1C2 | 265 to 267
NNc1ccc(C(F)(F)F)cc1 | 62
CS(=O)(=O)c1noc(-c2cccs2)c1C#N | 167 to 168
O=C(O)c1cc(-c2ccccc2)c(C(F)(F)F)s1 | 130 to 132
COc1ccc(C(=O)c2cccc(C)c2)cc1C | 62.3
CC(Br)C(C)Br (stereo not given) | -24
N#Cc1ccccc1COc1ccccc1 | 62 to 64
CC(C)(O)C(=O)c1ccc(OCCO)cc1 | 89
CCOC(=O)C(CCc1ccccc1)NC(C)C(=O)N1CCCC1C(=O)O (stereo not given) | 144
CC=CCC=CCCC(=O)C1OC1C(N)=O (stereo not given) | 93.5
O=C1CCCC2C3CCCN4CCCC(CN12)C34 (stereo not given) | 76
CC(C)OC(=O)C1(S(=O)(=O)c2ccc([N+](=O)[O-])cc2)CC1 | 123
CCOc1cccc(C(=O)NN)c1 | 102

Compound | melting point [°C]
Cc1oc(C(C)(C)C)cc1C(=O)Cl | 41 to 44
C=C(NC(C)=O)C(=O)CCC(N)=O | 130
CN1C(=O)C(O)N=C(c2ccccc2Cl)c2cc(Cl)ccc21 (stereo not given) | 206
Sc1ccccc1S | 28.5
OC(Cc1ccccc1)C(Cc1ccccc1)=NNc1ccc(Br)cc1 (stereo not given) | 139
Cc1cccc(NC(=O)c2cnc(C(C)(C)C)cn2)c1 | 95
S=C=Nc1cc(Cl)cc(Cl)c1 | 46
NC(=S)N1CCCCC1 | 127 to 129
CC(=O)c1cnccn1 | 77
Oc1nn(-c2ccc(Br)cc2)cc1Br | 199 to 201
CN1C(=N)NC(=O)C1Cc1ccc(O)cc1 (stereo not given) | 221 to 225
Cc1nn(-c2ccccc2)nc1C(=O)NO | 160
CCC1(CC)C(=O)NC(=O)NC1=O | 190
Cc1cccn2c(=O)c(C(=O)c3ccccc3)cnc12 | 146 to 147
Nc1nsc2ccc([N+](=O)[O-])cc12 | 200
Cn1c(=O)c(C2=NNC(=O)C2=CNc2ccc(Cl)cc2)c(O)c2ccccc21 | 290
O=C1C(C(O)c2ccccc2)C(C(F)(F)F)=NN1c1ccccc1 (stereo not given) | 258
NC(=NO)c1ccc(C(F)(F)F)cc1 | 125 to 128
C=CC(C)(O)CCC=C(C)C (stereo not given) | < 25
O=C(O)c1cccnc1N1CCOCC1 | 129 to 133
COc1ccc(C(F)(F)F)cc1C(=O)O | 110
N#C/C(=N\Nc1cccc(O)c1)c1nc2ccccc2[nH]1 | 238
CC(=O)Nc1ccccc1CCCCc1ccccc1NC(C)=O | 235 to 237
CC(C)c1ccc(O)c(O)c1 | 78
CC12CCC(C(C(c3ccccc3)c3ccccc3)C1=O)C2(C)C (stereo not given) | 137
CCCCCCCCCCOc1ccc(/N=N/c2ccc(CCCC)cc2)cc1 | 55.5 to 74

Compound | melting point [°C]
N#CC#N | -27.9
O=C(O)[C@@H]1C[C@H]1c1ccccc1 (relative stereo) | 86 to 92
S=C=Nc1cccc2nsnc12 | 88 to 89
COc1cc2nc[nH]c(=O)c2cc1OC | 250
NCc1ccc(N2CCCC2)cc1 | 37 to 44
CCCCCCCCNC(C)C(O)c1ccc(SC(C)C)cc1 (stereo not given) | 62.5
FC(F)(F)c1cnc(Cl)c(Cl)c1 | 8 to 9
CCCCCCN1CCCC1=O | 4
COc1cc(N)ncn1 | 100
Ic1ccccc1I | 27
O=C(CCl)NC1CC1 | 82
COC(=O)C1=C(C)NC(=O)NC1c1ccc(Cl)cc1 (stereo not given) | 172
O=C(O)CC(CC(=O)O)c1ccc(C(F)(F)F)cc1 | 166 to 168
C=NCC#N | 129
CCCC1(O)CCC2C3CCC4CC(OC(C)=O)CCC4(C)C3CCC21C (stereo not given) | 120 to 121
Cc1cc(C(F)(F)F)n2nc(N)c(/N=N/c3cc(Cl)ccc3Cl)c2n1 | 215
O=C(CC(=O)c1cc(Cl)ccc1O)c1ccccc1 | 107 to 112
COc1cccc(O)c1 | -17
Cc1ccc2c(c1)C1C(C3C2C2(Cl)C(Cl)=C(Cl)C3(Cl)C2(Cl)Cl)C2(Cl)C(Cl)=C(Cl)C1(Cl)C2(Cl)Cl (stereo not given) | 160 to 165
Nc1c(Br)cccc1Br | 87.5
Clc1ccncc1 | -43.5
c1ccc(P(CCCCCP(c2ccccc2)c2ccccc2)c2ccccc2)cc1 | 47
O=C(Nc1ccccc1)C(=O)Nc1ccccc1 | 254
O=C(Oc1ccc(O)cc1)c1ccccc1 | 166
CCCCCCC(O)CCC (stereo not given) | -11
Cc1ccc(C=C2N=C(c3ccccc3)OC2=O)o1 | 159 to 160

Compound | melting point [°C]
O=C1c2ccccc2C(=O)N1CCCO | 78
CC(Oc1ccc(Oc2ncc(C(F)(F)F)cc2Cl)cc1)C(=O)O (stereo not given) | 108
ClCc1ccc(-c2ncccn2)cc1 | 83 to 84.5
Nc1oncc1-c1ccccn1 | 133 to 136
CCOc1cc2c(cc1OCC)C(=S)NCC2 | 150 to 152
O=C(O)/C=C/Cl | 82
CC(=O)Nc1ccccc1C=Cc1cc(C=Cc2ccccc2NC(C)=O)c([N+](=O)[O-])cc1[N+](=O)[O-] | 270
Cc1nnc(SCc2ccccc2)n1N=Cc1ccc(Cl)cc1 | 120 to 121
OCCSCCCCCCCCCCSCCO | 69.5
CSc1nc(=O)n(CCO)c2c1CCC2 | 193 to 195
CC(=O)Nc1ccc(C#N)c(C)c1 | 163
CC12CCC(=O)C=C1CCC1C2CCC2(C)CCCC12O (stereo not given) | 180
O=C(O)C[C@H](NC(=O)OCC1c2ccccc2-c2ccccc21)c1ccccc1 | 187
NC(=S)C(c1ccccc1)c1ccccc1 | 143 to 146
O=C(c1ccc(O)cc1)c1ccc(O)cc1 | 223
Cn1nccc1-c1cccc(C(=O)O)c1 | 138 to 140
CC(C)C1=CCC2C(=C1)CCC1C(C)(C(=O)O)CCCC21C (stereo not given) | 150
CC(=O)c1cc(Cl)sc1Cl | 38
C#CC1(O)CCC2C3CCC4=CC(O)CCC4(C)C3CCC21C (stereo not given) | 204
CN(C)CCn1cnc2c1c(=O)n(C)c(=O)n2C | 95
O=C(O)c1ccno1 | 143
O=[N+]([O-])c1ccc(NN=Cc2cccc3c(Br)ccc([N+](=O)[O-])c23)cc1 | 205
O=C1c2cc3ccccc3cc2-c2ccc3ccccc3c21 | 214
C=C1C(=O)C23C4CC5C(C)(C)CCC(OC(C)=O)C5(C(=O)O4)C2C(OC(C)=O)CC1C3OC(C)=O (stereo not given) | 230
CCCCCCCCCCCCC(C)CC (stereo not given) | -22
Cc1cc2ccccc2nc1C | 68.5
